Reference: US20260216250A1, “Compositions and Methods for Treating a Neurologic Disease Using Dopaminergic Neurons with Enhanced Anti-inflammatory Activity” (Kenai Therapeutics Inc., priority 2023, published 2026)

How the values were obtained:
rodent GSK3β homologs = conditions: cited from earlier work
iPS cells = assay: Differentiation of iPS cells into FOXA2+/LMX1+ cells or dopamine neurons; assay type: cell-based, human; conditions: increased concentrations, e.g. 2 μM as compared to 0.2 μM
Description: Disclosed is an in vitro method for preparing a cell composition comprising modified human cells that express both forkhead box protein A2 (FOXA2) and LIM homeobox transcription factor 1 (LMX1) (FOXA2^+/LMX1^+ cells) comprising culturing modified human pluripotent cells in the presence of the following signaling modulators: (a) a single inhibitor of Small Mothers Against Decapentaplegic (SMAD) signaling, (b) at least one activator of Sonic hedgehog (SHH) signaling, and (c) at least one activator of wingless (Wnt) signaling; and culturing said cells in the presence of said modulators for a period of time sufficient to provide a cell composition comprising said FOXA2^+/LMX1^+ cells. In some preferred embodiments, the LMX1 is LIM homeobox transcription factor 1 alpha (LMX1A). In some embodiments, the inhibitor of SMAD signaling is a BMP inhibitor such as, […]., at a concentration of from about 0.2 μM to about 4 μM, more preferably greater than 0.2 μM to about 4 μM, about 1 μM, 2 μM, 3 μM, 4 μM, or any range derivable therein), dorsomorphin, DMH-1, or noggin. […] In some embodiments, the BMP inhibitor is LDN-193189. The SMAD signaling inhibitor may be a TGFβ inhibitor (a TGFβ signaling pathway inhibitor) such as, for example, SB431542 (e.g., SB431542 present at a concentration of about 5-100, 20-60, 30-50 μM, or about 40 μM). […]

Ago = Ago (Homo sapiens, UniProt Q9UKV8); conditions: cited from earlier work
Sequence of Ago (Q9UKV8 whole entry): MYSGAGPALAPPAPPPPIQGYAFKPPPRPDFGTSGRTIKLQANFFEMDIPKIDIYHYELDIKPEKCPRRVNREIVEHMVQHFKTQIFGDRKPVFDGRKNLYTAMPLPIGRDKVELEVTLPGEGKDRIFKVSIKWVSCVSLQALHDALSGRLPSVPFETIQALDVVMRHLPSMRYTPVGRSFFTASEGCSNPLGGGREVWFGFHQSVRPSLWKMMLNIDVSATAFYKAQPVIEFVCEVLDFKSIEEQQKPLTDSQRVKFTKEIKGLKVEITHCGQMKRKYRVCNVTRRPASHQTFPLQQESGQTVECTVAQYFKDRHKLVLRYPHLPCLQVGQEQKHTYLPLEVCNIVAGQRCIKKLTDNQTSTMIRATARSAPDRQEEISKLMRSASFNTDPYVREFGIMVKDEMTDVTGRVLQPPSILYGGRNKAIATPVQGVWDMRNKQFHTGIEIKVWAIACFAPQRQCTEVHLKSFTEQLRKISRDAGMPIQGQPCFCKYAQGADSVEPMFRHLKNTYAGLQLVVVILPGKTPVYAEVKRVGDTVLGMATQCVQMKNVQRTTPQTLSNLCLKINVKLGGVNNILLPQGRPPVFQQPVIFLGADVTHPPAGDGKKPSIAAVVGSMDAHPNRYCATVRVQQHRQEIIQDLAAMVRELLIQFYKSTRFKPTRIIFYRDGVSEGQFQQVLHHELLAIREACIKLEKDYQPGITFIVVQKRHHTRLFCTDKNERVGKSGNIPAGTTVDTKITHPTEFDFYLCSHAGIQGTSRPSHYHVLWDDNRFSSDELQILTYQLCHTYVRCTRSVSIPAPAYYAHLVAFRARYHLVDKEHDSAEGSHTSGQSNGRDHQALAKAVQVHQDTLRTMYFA

Cc1c[nH]c(-c2cnc(NCCNc3ccc(C#N)cn3)nc2-c2ccc(Cl)cc2Cl)n1 [CHIR99021, 6-(2-(4-(2,4-dichlorophenyl)-5-(4-methyl-1H-imidazol-2-yl)pyrimidin-2-ylamino)ethylamino) nicotinonitrile]
IC50 values against rodent GSK3β homologs (rodent GSK3β homologs): nanomolar

c1ccc2c(-c3cnn4cc(-c5ccc(N6CCNCC6)cc5)cnc34)ccnc2c1 [LDN-193189, 4-(6-(4-(piperazin-1-yl)phenyl)pyrazolo[1,5-a]pyrimidin-3-yl) quinoline]
differentiation of iPS cells into FOXA2+/LMX1+ cells or dopamine neurons (iPS cells): improved differentiation

UUAAUGCUAAUCGUGAUAGGGGUU [miR-155-5p]
Ago binding affinity of 5′ terminal UMP relative to the CMP nucleotide on the 5′ terminus of the miR-155-3p strand (Ago): approximately 20 times
